According to PubChem BioAssay (NCI):
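Exposure lasted 48 hours, with cells grown in 96-well plates and compounds tested at five concentrations. Here, GI50 denotes the concentration required for 50% inhibition of growth. TGI: concentration producing complete growth inhibition.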

How the values were obtained:
Assay in all cases: NCI-60 cell line screen, 48 h
786-0 renal = system: 786-0 renal
A498 renal = system: A498 renal
A549 NSCLC = system: A549 NSCLC
ACHN renal = system: ACHN renal
BT-549 breast = system: BT-549 breast
CAKI-1 renal = system: CAKI-1 renal
CCRF-CEM leukemia = system: CCRF-CEM leukemia
COLO 205 colon = system: COLO 205 colon
DU-145 prostate = system: DU-145 prostate
EKVX NSCLC = system: EKVX NSCLC
HCC-2998 colon = system: HCC-2998 colon
HCT-116 colon = system: HCT-116 colon
HCT-15 colon = system: HCT-15 colon
HL-60(TB) leukemia = system: HL-60(TB) leukemia
HOP-62 NSCLC = system: HOP-62 NSCLC
HOP-92 NSCLC = system: HOP-92 NSCLC
HS 578T breast = system: HS 578T breast
HT29 colon = system: HT29 colon
IGROV1 ovarian = system: IGROV1 ovarian
K-562 leukemia = system: K-562 leukemia
KM12 colon = system: KM12 colon
LOX IMVI melanoma = system: LOX IMVI melanoma
M14 melanoma = system: M14 melanoma
MALME-3M melanoma = system: MALME-3M melanoma
MCF7 breast = system: MCF7 breast
MDA-MB-231 breast = system: MDA-MB-231 breast
MDA-MB-435 = system: MDA-MB-435
MDA-MB-468 breast = system: MDA-MB-468 breast
MOLT-4 leukemia = system: MOLT-4 leukemia
NCI-H226 lung = system: NCI-H226 lung
NCI-H23 lung = system: NCI-H23 lung
NCI-H460 lung = system: NCI-H460 lung
NCI-H522 lung = system: NCI-H522 lung
NCI/ADR-RES ovarian = system: NCI/ADR-RES ovarian
OVCAR-3 ovarian = system: OVCAR-3 ovarian
OVCAR-4 ovarian = system: OVCAR-4 ovarian
OVCAR-5 ovarian = system: OVCAR-5 ovarian
OVCAR-8 ovarian = system: OVCAR-8 ovarian
PC-3 prostate = system: PC-3 prostate
RPMI-8226 leukemia = system: RPMI-8226 leukemia
RXF 393 renal = system: RXF 393 renal
SF-268 CNS = system: SF-268 CNS
SF-295 CNS = system: SF-295 CNS
SF-539 CNS = system: SF-539 CNS
SK-MEL-2 melanoma = system: SK-MEL-2 melanoma
SK-MEL-28 melanoma = system: SK-MEL-28 melanoma
SK-MEL-5 melanoma = system: SK-MEL-5 melanoma
SK-OV-3 ovarian = system: SK-OV-3 ovarian
SN12C renal = system: SN12C renal
SNB-19 CNS = system: SNB-19 CNS
SNB-75 CNS = system: SNB-75 CNS
SR leukemia = system: SR leukemia
SW-620 colon = system: SW-620 colon
T-47D breast = system: T-47D breast
TK-10 renal = system: TK-10 renal
U251 CNS = system: U251 CNS
UACC-257 melanoma = system: UACC-257 melanoma
UACC-62 melanoma = system: UACC-62 melanoma
UO-31 renal = system: UO-31 renal

Molecule `O=C(N/N=C/c1ccc(-c2ccc(O)cc2)o1)c1[nH]c2ccc(Br)cc2c1-c1ccccc1` has a GI50 (786-0 renal) of 1550 nM, a TGI (786-0 renal) of 8.43 µM and a GI50 (A498 renal) of 8.21 µM. It also gave a TGI (A498 renal) of 21.9 µM, a GI50 (A549 NSCLC) of 987 nM and a TGI (A549 NSCLC) of 16.2 µM. The GI50 (ACHN renal) was 500 nM, the TGI (ACHN renal) was 8.07 µM and the GI50 (BT-549 breast) was 415 nM. The TGI (BT-549 breast) was 3.74 µM, the GI50 (CAKI-1 renal) was 969 nM and the TGI (CAKI-1 renal) was 15.5 µM. It also gave a GI50 (CCRF-CEM leukemia) of 474 nM, a TGI (CCRF-CEM leukemia) of 26.9 µM and a GI50 (COLO 205 colon) of 1900 nM. The TGI (COLO 205 colon) was 3.93 µM, the GI50 (DU-145 prostate) was 366 nM and the TGI (DU-145 prostate) was 3.85 µM. It also gave a GI50 (EKVX NSCLC) of 3.44 µM, a TGI (EKVX NSCLC) of 15.2 µM and a GI50 (HCC-2998 colon) of 860 nM. It also gave a TGI (HCC-2998 colon) of 3.67 µM, a GI50 (HCT-116 colon) of 393 nM and a TGI (HCT-116 colon) of 3.55 µM. For the same molecule, the GI50 (HCT-15 colon) was 354 nM, the TGI (HCT-15 colon) was 5.3 µM and the GI50 (HL-60(TB) leukemia) was 257 nM. The TGI (HL-60(TB) leukemia) was 713 nM, the GI50 (HOP-62 NSCLC) was 870 nM and the TGI (HOP-62 NSCLC) was 19.2 µM. The GI50 (HOP-92 NSCLC) was 2750 nM, the TGI (HOP-92 NSCLC) was 11.2 µM and the GI50 (HS 578T breast) was 410 nM. It also gave a TGI (HS 578T breast) of 1290 nM, a GI50 (HT29 colon) of 1920 nM and a TGI (HT29 colon) of 7.02 µM. The GI50 (IGROV1 ovarian) was 617 nM, the TGI (IGROV1 ovarian) was 17.8 µM and the GI50 (K-562 leukemia) was 371 nM. The TGI (K-562 leukemia) was 17.9 µM, the GI50 (KM12 colon) was 355 nM and the TGI (KM12 colon) was 4.51 µM. The GI50 (LOX IMVI melanoma) was 356 nM, the TGI (LOX IMVI melanoma) was 3.22 µM and the GI50 (M14 melanoma) was 3.33 µM. For the same molecule, the TGI (M14 melanoma) was 22.8 µM, the GI50 (MALME-3M melanoma) was 2580 nM and the TGI (MALME-3M melanoma) was 22.4 µM. It also gave a GI50 (MCF7 breast) of 332 nM, a TGI (MCF7 breast) of 6.66 µM and a GI50 (MDA-MB-231 breast) of 323 nM. For the same molecule, the TGI (MDA-MB-231 breast) was 790 nM, the GI50 (MDA-MB-435) was 248 nM and the TGI (MDA-MB-435) was 602 nM. For the same molecule, the GI50 (MDA-MB-468 breast) was 318 nM, the TGI (MDA-MB-468 breast) was 2660 nM and the GI50 (MOLT-4 leukemia) was 531 nM. It also gave a TGI (MOLT-4 leukemia) of 5.04 µM, a GI50 (NCI-H226 lung) of 2950 nM and a TGI (NCI-H226 lung) of 22.4 µM. It also gave a GI50 (NCI-H23 lung) of 378 nM, a TGI (NCI-H23 lung) of 12.7 µM and a GI50 (NCI-H460 lung) of 342 nM. The TGI (NCI-H460 lung) was 1270 nM, the GI50 (NCI-H522 lung) was 208 nM and the TGI (NCI-H522 lung) was 519 nM. It also gave a GI50 (NCI/ADR-RES ovarian) of 292 nM, a TGI (NCI/ADR-RES ovarian) of 592 nM and a GI50 (OVCAR-3 ovarian) of 275 nM. For the same molecule, the TGI (OVCAR-3 ovarian) was 873 nM, the GI50 (OVCAR-4 ovarian) was 3.56 µM and the TGI (OVCAR-4 ovarian) was 20.8 µM. It also gave a GI50 (OVCAR-5 ovarian) of 515 nM, a TGI (OVCAR-5 ovarian) of 13.8 µM and a GI50 (OVCAR-8 ovarian) of 363 nM. The TGI (OVCAR-8 ovarian) was 900 nM, the GI50 (PC-3 prostate) was 569 nM and the TGI (PC-3 prostate) was 14.1 µM. For the same molecule, the GI50 (RPMI-8226 leukemia) was 442 nM, the TGI (RPMI-8226 leukemia) was > 22.2 µM and the GI50 (RXF 393 renal) was 414 nM. For the same molecule, the TGI (RXF 393 renal) was 2180 nM, the GI50 (SF-268 CNS) was 654 nM and the TGI (SF-268 CNS) was 12.7 µM. For the same molecule, the GI50 (SF-295 CNS) was 611 nM, the TGI (SF-295 CNS) was 2900 nM and the GI50 (SF-539 CNS) was 240 nM. The TGI (SF-539 CNS) was 536 nM, the GI50 (SK-MEL-2 melanoma) was 378 nM and the TGI (SK-MEL-2 melanoma) was 3.68 µM. For the same molecule, the GI50 (SK-MEL-28 melanoma) was 1960 nM, the TGI (SK-MEL-28 melanoma) was 18 µM and the GI50 (SK-MEL-5 melanoma) was 472 nM. For the same molecule, the TGI (SK-MEL-5 melanoma) was 1690 nM, the GI50 (SK-OV-3 ovarian) was 493 nM and the TGI (SK-OV-3 ovarian) was 16.8 µM. For the same molecule, the GI50 (SN12C renal) was 417 nM, the TGI (SN12C renal) was 2870 nM and the GI50 (SNB-19 CNS) was 577 nM. It also gave a TGI (SNB-19 CNS) of 14.6 µM, a GI50 (SNB-75 CNS) of 3.13 µM and a TGI (SNB-75 CNS) of 20 µM. The GI50 (SR leukemia) was 490 nM, the TGI (SR leukemia) was 3.23 µM and the GI50 (SW-620 colon) was 444 nM. The TGI (SW-620 colon) was 16.1 µM, the GI50 (T-47D breast) was 2670 nM and the TGI (T-47D breast) was 26.5 µM. The GI50 (TK-10 renal) was 4.56 µM, the TGI (TK-10 renal) was 19.6 µM and the GI50 (U251 CNS) was 419 nM. It also gave a TGI (U251 CNS) of 10.3 µM, a GI50 (UACC-257 melanoma) of 4.69 µM and a TGI (UACC-257 melanoma) of 23.1 µM. The GI50 (UACC-62 melanoma) was 527 nM, the TGI (UACC-62 melanoma) was 15.1 µM and the GI50 (UO-31 renal) was 2050 nM. For the same molecule, the TGI (UO-31 renal) was 16.2 µM.
